# Patent US7846747B2, “Biocatalytic solgel microarrays” (Rensselaer Polytechnic Institute, priority 2001, dated 2010)
# Tested on: MCF7 breast cancer cells
compound,measurement,value
O=P1(N(CCCl)CCCl)NCCCO1 (stereo not shown) [cyclophosphamide],number of dead cells and ratio of dead to live cells,significant increase in the number of dead cells
